What was measured:
NCI-H1650 cell line = test: Cellular anti-proliferative assay of VPS34 inhibitors in combination with a second therapeutic agent (Cell Titer Glo, 72 hrs); format: cell-based, human; settings: NCI H-1650; for Blending Synergy: in combination with Erlotinib (Compound Y)
Protocol: (§1) Example 57: Cellular Assay for Anti-proliferative Activity of VPS34 Inhibitors in Combination with a Second Therapeutic Agent
(§2) Cells were plated in 25 μl of media in 384 well plates at 1,000 cells per well (A431, PC9, and […] cell lines), 1,500 cells per well (NCI-H1975) or 2,000 cells per well (NCI-H1650). The plates were incubated for 24 hrs at 37° C., 6% CO2. The test compounds (see Table 38 below) were diluted serially, and 62.5 nL of each compound solution (or DMSO, if it is a single agent experiment) is added so the total added to the cells is 125 nL. Cell plates were incubated for 72 hrs at 37° C., 6% CO2. Cell Titer Glo reagent (Promega) was added. The plates were then incubated for 10 minutes at room temperature before luminescence was read on a plate reader such as the Pherastar Plus, Pherastar FS, or LEADSeeker imaging system.
(§3) Bliss antagonism was defined similarly.
(§4) Bliss dependence was defined as the percent cell survival at a certain dose combination divided by the percent cell survival predicted by Bliss independence. More specifically, the Bliss dependence is vAB/(vA*vB), where vAB is the viability with drug A and drug B added, while vA and vB are the viabilities with each drug alone. The dose for the combination used in this study is the inflection point for each drug alone.
(§5) Another way to evaluate additivity is through consideration of Loewe additivity. A difference between Bliss independence and Loewe additivity evaluations of drug combination data is that Bliss independence evaluates whether two drugs interact at all (the null hypothesis is that the mechanisms are entirely independent) and Loewe additivity evaluates whether two drugs interact in an additive fashion (the null hypothesis is that the two drugs work by identical mechanisms). For Bliss independence, the boundary between additivity and synergy must be measured. For Loewe additivity, this boundary is assumed to be at a value of 1. Thus, Bliss independence provides a boundary between antagonism and synergy or additivity. Loewe additivity provides a boundary between synergy and independence or antagonism.
(§6) Synergy can also be measured by nonlinear blending synergy. Nonlinear blending synergy [Peterson, J. J. and Novik, S. J. J Recept Signal Transduct Res, 27, 12-146 (2007))] is found by considering the percent cell death values along the nonlinear blending plot. If the maximum cell death occurs between the endpoints, then the blending synergy is the difference between the maximum cell death for the combined drugs and the maximum cell death for the either drug alone.
(§7) A derivative of Loewe additivity is the Combination Index, I (see Chou T. C., Talalay P. Adv. Enzyme Reg., 22: 27-55 (1984) and Berenbaum M. C. J. Theor. Biol., 114:413-431 (1985)). This measure is based on the shape of the isobologram which represents 50% viability (for a review of the use of isobolograms in analysis of drug combinations, see Tallarida, R. J. J. Pharm. Exp. Therap. 319:1-7 (2006)).
(§8) The results in Table 38A were summarized by categorizing the Combination Index, I. A mean Combination Index in the range (0.7-1.3) is classified as Additivity. A mean in the range (0-0.7) is classified as Synergy. A mean in the range (1.3-2) is classified as Subadditivity. A mean greater than 2 is classified as Antagonism. […] In this case, the Nonlinear Blending Synergy is used instead to generate a call (Table 38B). The categorization is similar to the Combination Index. A Nonlinear Blending Synergy within the range (−20, 20) is classified as Additive. A value below −20 is classified as Antagonism, while a value above 20 is classified as Synergy.

NCI-H1975 cell line = test: as above; format: cell-based, human
Protocol: as §1, §2, §3, §4, §5, §6, §7, §8

PC9 cell line = test: as above; format: cell-based, human
Protocol: as §1, §2, §3, §4, §5, §6, §7, §8

human VPS34 = human VPS34 (Homo sapiens (Human), UniProt Q8NEB9); test: Human VPS34 enzyme assay (Adapta TR-FRET ADP detection); format: biochemical; settings: IC50 range class
A431 cell line = test: Cellular anti-proliferative assay of VPS34 inhibitors in combination with a second therapeutic agent (Cell Titer Glo, 72 hrs); format: cell-based
Protocol: as §1, §2, §3, §4, §5, §6, §7, §8

[1] = in combination with AZD9291 (Compound Y)
[2] = in combination with Afatinib (Compound Y)
[3] = in combination with CO-1686 (Compound Y)
[4] = in combination with AZD9291, call from Combination Index
[5] = in combination with Afatinib, call from Combination Index
[6] = in combination with CO-1686, call from Combination Index
[7] = in combination with Erlotinib (Compound Y)
[8] = in combination with Erlotinib, call from Combination Index

Chain of human VPS34 (Q8NEB9 whole entry): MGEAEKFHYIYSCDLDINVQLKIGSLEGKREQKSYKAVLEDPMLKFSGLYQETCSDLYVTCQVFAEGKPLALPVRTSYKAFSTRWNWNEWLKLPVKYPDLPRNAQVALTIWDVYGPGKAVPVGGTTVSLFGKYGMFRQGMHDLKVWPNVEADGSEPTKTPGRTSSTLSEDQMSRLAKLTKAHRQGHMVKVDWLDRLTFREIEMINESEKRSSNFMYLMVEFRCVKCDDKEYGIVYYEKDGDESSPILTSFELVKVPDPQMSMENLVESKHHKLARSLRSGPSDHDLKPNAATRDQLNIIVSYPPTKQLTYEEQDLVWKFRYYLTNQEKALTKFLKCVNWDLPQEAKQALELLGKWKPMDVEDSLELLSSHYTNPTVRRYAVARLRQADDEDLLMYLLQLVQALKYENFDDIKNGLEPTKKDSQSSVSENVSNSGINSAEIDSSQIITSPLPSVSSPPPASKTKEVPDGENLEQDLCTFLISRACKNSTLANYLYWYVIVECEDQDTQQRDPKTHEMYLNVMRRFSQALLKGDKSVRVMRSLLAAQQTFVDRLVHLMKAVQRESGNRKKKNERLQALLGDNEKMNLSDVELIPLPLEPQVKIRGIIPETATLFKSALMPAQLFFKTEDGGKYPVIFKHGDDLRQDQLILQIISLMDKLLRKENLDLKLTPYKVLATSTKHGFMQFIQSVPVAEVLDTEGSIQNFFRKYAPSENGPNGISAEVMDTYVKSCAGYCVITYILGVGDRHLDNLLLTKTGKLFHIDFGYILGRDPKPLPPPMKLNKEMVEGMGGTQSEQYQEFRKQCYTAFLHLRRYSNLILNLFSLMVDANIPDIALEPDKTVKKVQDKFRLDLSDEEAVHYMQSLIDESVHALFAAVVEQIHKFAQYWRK

SMILES: Cc1nccc(Nc2cc(-c3cnc(Cl)c(NS(=O)(=O)c4ccc(F)cc4F)c3C)ccn2)n1 [Compound I-299, N-{6-chloro-4-methyl-2′-[(2-methylpyrimidin-4-yl)amino]-3,4′-bipyridin-5-yl}-2,4-difluorobenzenesulfonamide]
- Combination Index (NCI-H1650 cell line; [1]): 0.87
- Combination Index (NCI-H1650 cell line; [2]): 0.47
- Combination Index (NCI-H1650 cell line; [3]): 0.43
- Blending Synergy (NCI-H1650 cell line): 26.93
- Combination Index (NCI-H1975 cell line; [1]): 0.54
- Combination Index (NCI-H1975 cell line; [2]): 0.68
- Combination Index (NCI-H1975 cell line; [3]): 0.72
- Combination Index (PC9 cell line; [1]): 1.17
- Meaning (PC9 cell line; [4]): Additivity (A mean Combination Index in the range (0.7-1.3) is classified as Additivity)
- Combination Index (PC9 cell line; [2]): 1.37
- Meaning (PC9 cell line; [5]): Subadditivity (A mean in the range (1.3-2) is classified as Subadditivity)
- Combination Index (PC9 cell line; [3]): 1.00
- Meaning (PC9 cell line; [6]): Additivity (A mean Combination Index in the range (0.7-1.3) is classified as Additivity)
- Combination Index (PC9 cell line; [7]): 1.18
- Meaning (PC9 cell line; [8]): Additivity (A mean Combination Index in the range (0.7-1.3) is classified as Additivity)
- IC50 (human VPS34): 10 to 50 nM
- Combination Index (A431 cell line; [1]): 1.00
- Meaning (A431 cell line; [4]): Additivity (A mean Combination Index in the range (0.7-1.3) is classified as Additivity)
- Combination Index (A431 cell line; [2]): 1.01
- Meaning (A431 cell line; [5]): Additivity (A mean Combination Index in the range (0.7-1.3) is classified as Additivity)
- Combination Index (A431 cell line; [3]): 1.02
- Meaning (A431 cell line; [6]): Additivity (A mean Combination Index in the range (0.7-1.3) is classified as Additivity)
- Combination Index (A431 cell line; [7]): 1.01
- Meaning (A431 cell line; [8]): Additivity (A mean Combination Index in the range (0.7-1.3) is classified as Additivity)

SMILES: Cc1nccc(Nc2cc(-c3cnc(C)c(C(=O)N4CCC4)c3)ccn2)n1 [Compound I-304, Azetidin-1-yl(6-methyl-2′-((2-methylpyrimidin-4-yl)amino)-3,4′-bipyridin-5-yl)methanone]
- Combination Index (NCI-H1650 cell line; [1]): 0.80
- Combination Index (NCI-H1650 cell line; [3]): 0.47
- Combination Index (NCI-H1975 cell line; [1]): 1.00
- Combination Index (NCI-H1975 cell line; [3]): 0.77
- Combination Index (PC9 cell line; [1]): 0.98
- Meaning (PC9 cell line; [4]): Additivity (A mean Combination Index in the range (0.7-1.3) is classified as Additivity)
- Combination Index (PC9 cell line; [3]): 0.90
- Meaning (PC9 cell line; [6]): Additivity (A mean Combination Index in the range (0.7-1.3) is classified as Additivity)
- IC50 (human VPS34): 10 to 50 nM
- Combination Index (A431 cell line; [1]): 0.78
- Meaning (A431 cell line; [4]): Additivity (A mean Combination Index in the range (0.7-1.3) is classified as Additivity)
- Combination Index (A431 cell line; [3]): 0.99
- Meaning (A431 cell line; [6]): Additivity (A mean Combination Index in the range (0.7-1.3) is classified as Additivity)

SMILES: CC(=O)Nc1cc(-c2cnc(C)c(NS(=O)(=O)c3ccc(F)cc3F)c2)ccn1 [Compound I-41, N-(5-{[(2,4-difluorophenyl)sulfonyl]amino}-6-methyl-3,4′-bipyridin-2′-yl)acetamide]
- Combination Index (NCI-H1650 cell line; [1]): 0.92
- Combination Index (NCI-H1650 cell line; [2]): 0.72
- Combination Index (NCI-H1650 cell line; [3]): 0.58
- Blending Synergy (NCI-H1650 cell line): 20.5
- Combination Index (NCI-H1975 cell line; [1]): 0.45
- Combination Index (NCI-H1975 cell line; [2]): 0.58
- Combination Index (NCI-H1975 cell line; [3]): 0.51
- Combination Index (PC9 cell line; [1]): 0.92
- Meaning (PC9 cell line; [4]): Additivity (A mean Combination Index in the range (0.7-1.3) is classified as Additivity)
- Combination Index (PC9 cell line; [2]): 1.02
- Meaning (PC9 cell line; [5]): Additivity (A mean Combination Index in the range (0.7-1.3) is classified as Additivity)
- Combination Index (PC9 cell line; [3]): 0.84
- Meaning (PC9 cell line; [6]): Additivity (A mean Combination Index in the range (0.7-1.3) is classified as Additivity)
- Combination Index (PC9 cell line; [7]): 1.02
- Meaning (PC9 cell line; [8]): Additivity (A mean Combination Index in the range (0.7-1.3) is classified as Additivity)
- IC50 (human VPS34): < 10 nM
- Combination Index (A431 cell line; [1]): 0.62
- Meaning (A431 cell line; [4]): Synergy (A mean in the range (0-0.7) is classified as Synergy)
- Combination Index (A431 cell line; [2]): 0.24
- Meaning (A431 cell line; [5]): Synergy (A mean in the range (0-0.7) is classified as Synergy)
- Combination Index (A431 cell line; [3]): 0.74
- Meaning (A431 cell line; [6]): Additivity (A mean Combination Index in the range (0.7-1.3) is classified as Additivity)
- Combination Index (A431 cell line; [7]): 0.38
- Meaning (A431 cell line; [8]): Synergy (A mean in the range (0-0.7) is classified as Synergy)

SMILES: CC(=O)Nc1cc(-c2cnc(Cl)c(NS(=O)(=O)c3ccc(F)cc3F)c2C)ccn1 [Compound I-153, N-(6-chloro-5-{[(2,4-diflourophenyl)sulfonyl]amino}-4-methyl-3,4′-bipyridin-2′-yl)acetamide]
- Combination Index (NCI-H1650 cell line; [2]): 0.64
- Blending Synergy (NCI-H1650 cell line): 23.76
- Blending Synergy (NCI-H1975 cell line; [2]): 8.72
- Combination Index (PC9 cell line; [2]): 1.17
- Meaning (PC9 cell line; [5]): Additivity (A mean Combination Index in the range (0.7-1.3) is classified as Additivity)
- Combination Index (PC9 cell line; [7]): 0.97
- Meaning (PC9 cell line; [8]): Additivity (A mean Combination Index in the range (0.7-1.3) is classified as Additivity)
- IC50 (human VPS34): < 10 nM
- Combination Index (A431 cell line; [2]): 0.23
- Meaning (A431 cell line; [5]): Synergy (A mean in the range (0-0.7) is classified as Synergy)
- Blending Synergy (A431 cell line; [7]): 16.3
- Meaning (A431 cell line; in combination with Erlotinib, call from Nonlinear Blending Synergy): Additivity

SMILES: CC(=O)Nc1cc(-c2cnc(N)c(C(=O)N3CCC(F)(F)C3)c2)ccn1 [Compound I-60, N-{6-amino-5-[(3,3-difluoropyrrolidin-1-yl)carbonyl]-3,4′-bipyridin-2′-yl}acetamide]
- IC50 (human VPS34): 10 to 50 nM

SMILES: CC(=O)Nc1cc(-c2cncc(C(=O)C3CC3)c2)ccn1 [Compound I-8, N-[5-(cyclopropylcarbonyl)-3,4′-bipyridin-2′-yl]acetamide]
- IC50 (human VPS34): > 100 nM

SMILES: CC(=O)Nc1cc(-c2cnc(C)c(N(C)S(=O)(=O)C3CC3)c2)ccn1 [Compound I-212, N-{5-[(cyclopropylsulfonyl)(methyl)amino]-6-methyl-3,4′-bipyridin-2′-yl}acetamide]
- IC50 (human VPS34): 50 to 100 nM

SMILES: CCN(CC)S(=O)(=O)c1cc(-c2ccnc(NC(C)=O)c2)cnc1C [Compound I-370, N-[5-(diethylsulfamoyl)-6-methyl-3,4′-bipyridin-2′-yl]acetamide]
- IC50 (human VPS34): 10 to 50 nM

SMILES: Cc1ncc(-c2ccnc(NC(=O)C3CC3)c2)cc1C(=O)N(C)C12CC(C1)C2 [Compound I-388, N-(bicyclo[1.1.1]pent-1-yl)-2′-[(cyclopropylcarbonyl)amino]-N,6-dimethyl-3,4′-bipyridine-5-carboxamide]
- IC50 (human VPS34): 50 to 100 nM

SMILES: COc1ncc(-c2ccnc(NC(C)=O)c2)cc1C(=O)N(C)C [Compound I-127, 2′-acetamido-6-methoxy-N,N-dimethyl-3,4′-bipyridine-5-carboxamide]
- IC50 (human VPS34): 50 to 100 nM

SMILES: CC(=O)Nc1cc(-c2cnc(Cl)c(N3CCCN(C)S3(=O)=O)c2)ccn1 [Compound I-467, N-[6-chloro-5-(6-methyl-1,1-dioxido-1,2,6-thiadiazinan-2-yl)-3,4′-bipyridin-2′-yl)acetamide]
- IC50 (human VPS34): < 10 nM

SMILES: Cc1ccc2ccc(Nc3cc(-c4cnc(C)c(NS(=O)(=O)c5ccc(F)cc5F)c4)ccn3)nc2n1 [Compound I-235, 2,4-difluoro-N-{6-methyl-2′-[(7-methyl-1,8-naphthyridin-2-yl)amino]-3,4′-bipyridin-5-yl}benzenesulfonamide]
- IC50 (human VPS34): 10 to 50 nM

— patent publication US9751854B2 (Millennium Pharmaceuticals, Inc., priority 2014, dated 2017)
